Like-named read-outs stand apart in the source and are kept apart here.

The test system of one series is FluV-A. Description: microbe, parasite or virus in culture. Format: cell-based, influenza virus A/Ishikawa/7/82 (H3N2).
The next series deals with RSV. The series can be described thus: microbe, parasite or virus in culture. Format: cell-based, RSV Long strain (type-A). Conditions: human respiratory syncytial virus.
The next series has as its system MLSV. Description: microbe, parasite or virus in culture. The series is classed as cell-based, Measles virus (MLSV) Edmonston strain. To be noted: Measles morbillivirus.
The subject of the next series is FluV-B. Description: MTT antiviral assay, FluV-B in MDCK cells. To be noted: influenza B virus, read-out: EC50 FluV-B (Singapore). The series is classed as cell-based, influenza virus B/Singapore/222/79.
In the next series the test system is RSV-A (FM-58-8). Description: microbe, parasite or virus in culture. Format: cell-based, RSV FM-58-8 (type-A). Conditions: human respiratory syncytial virus; Table 3; fresh isolate; ^b data from one experiment.
Another series deals with RSV-B (SM61-48). The series can be described thus: microbe, parasite or virus in culture. The series is classed as cell-based, RSV SM-61-48 (type-B). Conditions: human respiratory syncytial virus; Table 3; fresh isolate; ^b data from one experiment.
The next series has as its system MPSV. Description: MTT antiviral assay, mumps virus in HMV-2 cells. Format: cell-based, mumps virus (MPSV) ECXH-3 strain. Conditions: Mumps orthorubulavirus, HMV-2, read-out: EC50 MPSV (EXCH-3).
The test system of the next series is PFluV-2. The series can be described thus: MTT antiviral assay, parainfluenzavirus type 2 in HMV-2 cells. Format: cell-based, Greer strain. To be noted: Table 3, average of 3 to 4 independent experiments, read-out: EC50 PFluV-2 (Greer).
The test system of another series is PFluV-3. The series can be described thus: MTT antiviral assay, parainfluenzavirus type 3 in Vero cells. The series is classed as cell-based, C243 strain. To be noted: Table 3, average of 3 to 4 independent experiments, read-out: EC50 PFluV-3 (C243).
Another series relates to HMV-2 cells. To be noted: read-out: Cytotoxicity IC50 HMV-2, Table 3.
Series [1] in a line: in vitro. Conditions: dog, mdck.
The nature of series [2]: in vitro. Conditions: human, hep-2 cells.
Series [3] in a line: in vitro. Conditions: human, hmv-2 cells.
A short description of series [4]: in vitro. To be noted: monkey, vero cells, Cytotoxicity IC50 Vero, Table 3.
[5] abbreviates: viable cell counting (parentheses).

Turning to `NC(=O)c1ncn([C@@H]2O[C@H](CO)[C@@H](O)[C@H]2O)n1` [Ribavirin], the EC50 worked out at 3.7 µM with FluV-A (Ishikawa, read-out: EC50 FluV-A (Ishikawa)); 8.7 µM in the series with FluV-A (MDCK, read-out: Antiviral activity, EC50 FluV-A); 4.7 µM in the series on RSV (Table 2, read-out: Antiviral activity, EC50 RSV); 4.7 µM in the series with RSV (Table 3, average of 3 to 4 independent experiments, read-out: EC50 RSV-A (Long)); 5.2 µM with MLSV (HMV-2, read-out: Antiviral activity, EC50 MLSV); 5.2 µM in the series on MLSV (HMV-2, read-out: EC50 MLSV (Edmonston)). The EC50 in the series with FluV-B came to 5.1 µM; with RSV-A (FM-58-8), 3.5 µM; with RSV-B (SM61-48), 1.6 µM; in the series with MPSV, 3.4 µM; with PFluV-2 it was 8.9 µM; in the series with PFluV-3 it was 17.2 µM. The CC50 is over 100 µM in the series on HMV-2 cells (MTT method); over 100 µM in the series on HMV-2 cells (setting [5]); over 200 µM in the series “in vitro [1]” (Cytotoxicity IC50 MDCK, Table 3, MTT method); over 200 µM in “in vitro [1]” (Cytotoxicity IC50 MDCK, Table 3, viable cell counting (parentheses)); over 100 µM in the series “in vitro [1]” (Cytotoxicity, IC50 MDCK, Table 2); 52.7 µM in the series “in vitro [2]” (Cytotoxicity IC50 HEp-2, Table 3, MTT method). Also, the CC50 was over 200 µM in “in vitro [2]” (Cytotoxicity IC50 HEp-2, Table 3, viable cell counting (parentheses)); over 50 µM in “in vitro [2]” (Cytotoxicity, IC50 HEp-2, Table 2); over 100 µM in “in vitro [3]”; 100 µM in “in vitro [4]” (MTT method); over 200 µM in the series “in vitro [4]” (setting [5]).

These data come from patent US5824706A (priority 1995, dated 1998).
